# Measurements reported in publication PMC7401273, “Unexpected Enhancement of HDACs Inhibition by MeS Substitution at C-2 Position of Fluoro Largazole” (Marine Drugs, 2020).
# Read-outs that look alike come from different tables or passages of the source.
# Tests used:
# recombinant human HDAC1 [1] = target: T1, recombinant human HDAC1 (Homo sapiens, UniProt Q13547); test: recombinant human HDAC1 enzymatic assay; assay type: biochemical; conditions: 10-dose IC50 mode in duplicate, three-fold serial dilution
# T1 construct: purchased BPS Biosciences
# Experimental: (§1) The assays were carried out by Shanghai ChemPartner Co., Ltd (Shanghai, China), according to our previous method. Briefly, different concentrations of compounds were incubated with recombinant human HDAC1, HDAC2, HDAC3, HDAC6 and HDAC8 (BPS Biosciences, San Diego, CA, USA) at room temperature for 15 min, which was followed by adding Ac-peptide-AMC substrates to initiate the reaction in Tris-based assay buffer. Reaction mixtures were incubated at room temperature for 60 min in HDAC1, HDAC2, HDAC3 and HDAC6 assays, and were incubated for 240 min in HDAC8 assay. Then, the stop solution containing trypsin was added. The coupled reaction was incubated for another 90 min at 37 °C. Fluorescent AMC released from substrate was measured in SynergyMx (BioTek, Winooski, VT, US) using filter sets as excitation = 355 nm and emission = 460 nm. IC50 values were calculated by GraphPad Prism software (7.0 version., GraphPad Software, San Diego, CA, USA).
# recombinant human HDAC2 [2] = target: T2, recombinant human HDAC2 (Homo sapiens, UniProt Q92769); test: recombinant human HDAC2 enzymatic assay; assay type: biochemical; conditions: 10-dose IC50 mode in duplicate, three-fold serial dilution
# T2 construct: purchased BPS Biosciences
# Experimental: The assays were carried out by Shanghai ChemPartner Co., Ltd (Shanghai, China), according to our previous method [23, 24]. Briefly, different concentrations of compounds were incubated with recombinant human HDAC1, HDAC2, HDAC3, HDAC6 and HDAC8 (BPS Biosciences, San Diego, CA, USA) at room temperature for 15 min, which was followed by adding Ac-peptide-AMC substrates to initiate the reaction in Tris-based assay buffer. Reaction mixtures were incubated at room temperature for 60 min in HDAC1, HDAC2, HDAC3 and HDAC6 assays, and were incubated for 240 min in HDAC8 assay. Then, the stop solution containing trypsin was added. The coupled reaction was incubated for another 90 min at 37 °C. Fluorescent AMC released from substrate was measured in SynergyMx (BioTek, Winooski, VT, US) using filter sets as excitation = 355 nm and emission = 460 nm. IC50 values were calculated by GraphPad Prism software (7.0 version., GraphPad Software, San Diego, CA, USA).
# recombinant human HDAC6 [3] = target: T3, recombinant human HDAC6 (Homo sapiens, UniProt Q9UBN7); test: recombinant human HDAC6 enzymatic assay; assay type: biochemical; conditions: 10-dose IC50 mode in duplicate, three-fold serial dilution
# T3 construct: purchased BPS Biosciences
# T3 sequence (Q9UBN7 1-1215): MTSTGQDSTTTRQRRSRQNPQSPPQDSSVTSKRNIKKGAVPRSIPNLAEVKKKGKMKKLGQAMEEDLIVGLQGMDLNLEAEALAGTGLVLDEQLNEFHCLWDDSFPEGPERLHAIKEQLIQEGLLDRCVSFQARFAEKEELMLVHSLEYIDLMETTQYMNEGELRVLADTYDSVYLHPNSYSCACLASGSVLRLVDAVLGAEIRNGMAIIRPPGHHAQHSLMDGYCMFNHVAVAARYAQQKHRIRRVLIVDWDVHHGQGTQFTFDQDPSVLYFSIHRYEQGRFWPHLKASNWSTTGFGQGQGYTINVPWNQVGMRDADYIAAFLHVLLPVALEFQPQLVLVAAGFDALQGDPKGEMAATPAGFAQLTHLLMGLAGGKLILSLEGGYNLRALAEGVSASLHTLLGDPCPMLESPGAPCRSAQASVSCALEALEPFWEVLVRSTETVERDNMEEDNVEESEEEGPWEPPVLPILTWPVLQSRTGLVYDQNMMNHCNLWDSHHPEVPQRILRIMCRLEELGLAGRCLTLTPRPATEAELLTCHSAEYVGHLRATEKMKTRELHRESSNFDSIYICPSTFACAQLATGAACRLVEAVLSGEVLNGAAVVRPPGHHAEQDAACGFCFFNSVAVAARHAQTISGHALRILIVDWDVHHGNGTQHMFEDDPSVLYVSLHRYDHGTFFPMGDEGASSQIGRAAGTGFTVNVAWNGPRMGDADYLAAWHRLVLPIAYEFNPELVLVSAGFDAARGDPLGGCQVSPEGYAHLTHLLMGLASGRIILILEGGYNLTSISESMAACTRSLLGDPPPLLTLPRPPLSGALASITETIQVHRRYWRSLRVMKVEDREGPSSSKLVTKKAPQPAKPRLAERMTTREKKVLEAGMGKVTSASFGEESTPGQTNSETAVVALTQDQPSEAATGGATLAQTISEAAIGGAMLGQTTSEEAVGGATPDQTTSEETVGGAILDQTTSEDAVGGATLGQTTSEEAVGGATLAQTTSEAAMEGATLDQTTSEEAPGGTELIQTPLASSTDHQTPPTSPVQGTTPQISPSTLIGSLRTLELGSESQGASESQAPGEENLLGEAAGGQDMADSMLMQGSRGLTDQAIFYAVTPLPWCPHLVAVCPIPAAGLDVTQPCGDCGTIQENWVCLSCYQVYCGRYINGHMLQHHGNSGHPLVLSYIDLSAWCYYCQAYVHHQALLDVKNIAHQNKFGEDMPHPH
# Experimental: as §1
# recombinant human HDAC3 [4] = target: T4, recombinant human HDAC3 (Homo sapiens, UniProt O15379); test: recombinant human HDAC3 enzymatic assay; assay type: biochemical; conditions: 10-dose IC50 mode in duplicate, three-fold serial dilution
# T4 construct: purchased BPS Biosciences
# Experimental: as §1
# recombinant human HDAC8 [5] = target: T5, recombinant human HDAC8 (Homo sapiens, UniProt Q9BY41); test: recombinant human HDAC8 enzymatic assay; assay type: biochemical; conditions: 10-dose IC50 mode in duplicate, three-fold serial dilution
# T5 construct: purchased BPS Biosciences
# T5 sequence (Q9BY41 1-377): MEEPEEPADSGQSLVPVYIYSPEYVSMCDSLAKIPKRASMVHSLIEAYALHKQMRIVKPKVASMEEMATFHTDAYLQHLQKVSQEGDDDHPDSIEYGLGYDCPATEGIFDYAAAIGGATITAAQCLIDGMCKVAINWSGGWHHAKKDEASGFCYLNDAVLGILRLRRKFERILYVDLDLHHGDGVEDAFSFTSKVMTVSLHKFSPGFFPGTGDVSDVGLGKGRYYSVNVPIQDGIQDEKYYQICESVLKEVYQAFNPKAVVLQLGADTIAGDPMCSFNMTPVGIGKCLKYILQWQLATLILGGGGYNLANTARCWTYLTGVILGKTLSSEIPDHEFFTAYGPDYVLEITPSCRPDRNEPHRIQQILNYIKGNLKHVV
# Experimental: as §1
# recombinant human HDAC8 [6] = target: T5, recombinant human HDAC8; set-up: method as in PMID 31163697; conditions: previously reported data; cited from earlier work
# recombinant human HDAC6 [7] = target: T3, recombinant human HDAC6; set-up: method as in PMID 31163697; conditions: previously reported data; cited from earlier work
# recombinant human HDAC2 [8] = target: T2, recombinant human HDAC2; set-up: method as in PMID 31163697; conditions: previously reported data; cited from earlier work
# recombinant human HDAC3 [9] = target: T4, recombinant human HDAC3; set-up: method as in PMID 31163697; conditions: previously reported data; cited from earlier work
# recombinant human HDAC1 [10] = target: T1, recombinant human HDAC1; set-up: method as in PMID 31163697; conditions: previously reported data, cited from earlier work; for Selectivity (HDAC1/6): selectivity of HDAC1 over HDAC6
# MDA-MB-231 cells = test: in vitro growth inhibition (MTT), MDA-MB-231 cells; assay type: cell-based; conditions: Homo sapiens, 72 h, at least seven-dose, duplicate
# Experimental: (§2) Eca-109, Bel 7402 and U937 cell lines were purchased from ATCC (Manassas, VA, USA), and the other tested cell lines were obtained from the Shanghai Institute for Biological Sciences, Chinese Academy of Sciences (Shanghai, China). MDA-MB-231, Hela, Eca-109 and Bel 7402 cells were cultured in DMEM medium supplemented with 10% heat-inactivated fetal bovine serum, 100 U/mL penicillin and 100 μg/mL streptomycin (Beyotime Biotech, Shanghai, China). A549 cells were cultured in F-12K medium supplemented with 10% heat-inactivated fetal bovine serum, 100 U/mL penicillin and 100 μg/mL streptomycin. HCT116 and SK-OV-3 cells were cultured in McCoy’s 5A medium supplemented with 10% heat-inactivated fetal bovine serum, 100 U/mL penicillin and 100 μg/mL streptomycin. U937 cells were cultured in RPMI-1640 medium supplemented with 10% heat inactivated fetal bovine serum, 100 U/mL penicillin and 100 μg/mL streptomycin. All cells were cultured at 37 °C in humidified air containing 5% CO2. According to our previous method, A549, HCT116, MDA-MB-231, SK-OV-3, Hela, Eca-109, Bel 7403 and U937 (600,000 cells/well) were seeded in 96-well plates and incubated for 24 h before being treated with various concentration of compounds or solvent control. Cells were further incubated for 72 h and then treated with MTT and incubated for another 3 h. The media was then removed and 100 μL DMSO was added to each well. The absorbance at 550 nm was measured by a SpectraMAX340 microplate reader (Molecular Devices, San Jose, CA, USA) with a reference wavelength at 690 nm. Adriamycin was used as a positive control in the assay.
# Hela cells = test: in vitro growth inhibition (MTT), Hela cells; assay type: cell-based; conditions: Homo sapiens, 72 h, at least seven-dose, duplicate
# Experimental: as §2, with “Cells were further incubated for 72 h and then treated with MTT and incubated for another 3 h. The media was then removed and 100 μL DMSO was added to each well.” left out, “Adriamycin was used as a positive control in the assay.” left out
# U937 cells = test: in vitro growth inhibition (MTT), U937 cells; assay type: cell-based; conditions: Homo sapiens, U-937, 72 h, at least seven-dose, duplicate
# Experimental: as §2, with “Cells were further incubated for 72 h and then treated with MTT and incubated for another 3 h. The media was then removed and 100 μL DMSO was added to each well.” left out, “Adriamycin was used as a positive control in the assay.” left out
# HCT116 cells = test: in vitro growth inhibition (MTT), HCT116 cells; assay type: cell-based; conditions: Homo sapiens, HCT-116, 72 h, at least seven-dose, duplicate
# Experimental: as §2
# Eca-109 cells = test: in vitro growth inhibition (MTT), Eca-109 cells; assay type: cell-based; conditions: Homo sapiens, 72 h, at least seven-dose, duplicate
# Experimental: as §2, with “Cells were further incubated for 72 h and then treated with MTT and incubated for another 3 h. The media was then removed and 100 μL DMSO was added to each well.” left out, “Adriamycin was used as a positive control in the assay.” left out
# Bel 7402 cells = test: in vitro growth inhibition (MTT), Bel 7402 cells; assay type: cell-based; conditions: Homo sapiens, 72 h, at least seven-dose, duplicate
# Experimental: as §2, with “Cells were further incubated for 72 h and then treated with MTT and incubated for another 3 h. The media was then removed and 100 μL DMSO was added to each well.” left out, “Adriamycin was used as a positive control in the assay.” left out
# A549 cells = test: in vitro growth inhibition (MTT), A549 cells; assay type: cell-based; conditions: Homo sapiens, 72 h, at least seven-dose, duplicate
# Experimental: as §2
# SK-OV-3 cells = test: in vitro growth inhibition (MTT), SK-OV-3 cells; assay type: cell-based; conditions: Homo sapiens, 72 h, at least seven-dose, duplicate
# Experimental: as §2
# [11] = tested on: A549, HCT116 and SK-OV-3 cells; test: in vitro growth inhibition (MTT), range over three cell lines; assay type: cell-based; conditions: towards A549, HCT116 and SK-OV-3 cells
# Experimental: as §2, with “Cells were further incubated for 72 h and then treated with MTT and incubated for another 3 h. The media was then removed and 100 μL DMSO was added to each well.” left out, “Adriamycin was used as a positive control in the assay.” left out
# T2 sequence (Q92769 whole entry): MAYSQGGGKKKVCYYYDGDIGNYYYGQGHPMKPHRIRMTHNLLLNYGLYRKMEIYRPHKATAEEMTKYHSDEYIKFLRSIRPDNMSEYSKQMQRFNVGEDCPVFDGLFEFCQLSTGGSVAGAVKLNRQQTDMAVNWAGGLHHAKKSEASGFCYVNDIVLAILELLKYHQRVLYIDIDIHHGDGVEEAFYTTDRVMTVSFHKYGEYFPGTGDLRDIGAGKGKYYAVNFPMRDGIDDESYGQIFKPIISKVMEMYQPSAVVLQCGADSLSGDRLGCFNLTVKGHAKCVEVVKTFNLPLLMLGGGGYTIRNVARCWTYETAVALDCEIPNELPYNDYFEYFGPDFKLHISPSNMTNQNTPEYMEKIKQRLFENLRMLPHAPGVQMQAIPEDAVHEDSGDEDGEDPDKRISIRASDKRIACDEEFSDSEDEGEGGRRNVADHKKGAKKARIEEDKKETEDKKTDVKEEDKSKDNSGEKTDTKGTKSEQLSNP
# T4 sequence (O15379 whole entry): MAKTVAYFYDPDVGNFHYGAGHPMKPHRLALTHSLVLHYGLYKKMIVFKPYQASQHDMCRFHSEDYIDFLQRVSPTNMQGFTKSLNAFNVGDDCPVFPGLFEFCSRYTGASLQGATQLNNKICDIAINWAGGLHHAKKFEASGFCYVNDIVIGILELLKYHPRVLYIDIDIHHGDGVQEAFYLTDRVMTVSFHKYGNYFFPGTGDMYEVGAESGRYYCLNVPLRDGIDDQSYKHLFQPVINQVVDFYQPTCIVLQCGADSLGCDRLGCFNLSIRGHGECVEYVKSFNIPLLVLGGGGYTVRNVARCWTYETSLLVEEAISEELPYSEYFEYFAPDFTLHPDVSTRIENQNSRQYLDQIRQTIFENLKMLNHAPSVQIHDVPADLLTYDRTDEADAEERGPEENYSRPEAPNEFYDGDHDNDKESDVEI
# T4 sequence (Q9Y618 395-489 partner limits assumed): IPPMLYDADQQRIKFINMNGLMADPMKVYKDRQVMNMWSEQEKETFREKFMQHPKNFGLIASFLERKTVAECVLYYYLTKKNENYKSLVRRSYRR
# T1 sequence (Q13547 whole entry): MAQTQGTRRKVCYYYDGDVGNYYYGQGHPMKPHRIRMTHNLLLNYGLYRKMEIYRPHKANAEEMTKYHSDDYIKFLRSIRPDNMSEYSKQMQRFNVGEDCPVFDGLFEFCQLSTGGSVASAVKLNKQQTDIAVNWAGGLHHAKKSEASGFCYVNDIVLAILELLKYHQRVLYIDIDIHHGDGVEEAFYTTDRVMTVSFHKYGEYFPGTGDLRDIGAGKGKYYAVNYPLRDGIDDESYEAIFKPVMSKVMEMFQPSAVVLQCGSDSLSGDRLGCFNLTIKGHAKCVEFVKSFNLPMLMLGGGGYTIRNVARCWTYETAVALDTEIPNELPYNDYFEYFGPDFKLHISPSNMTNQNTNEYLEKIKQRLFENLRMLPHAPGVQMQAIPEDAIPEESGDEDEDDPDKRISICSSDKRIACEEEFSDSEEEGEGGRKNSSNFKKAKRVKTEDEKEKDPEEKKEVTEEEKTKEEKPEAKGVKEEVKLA
SMILES,IC50 (recombinant human HDAC8 [6]) [µM],IC50 (recombinant human HDAC6 [7]) [µM],IC50 (recombinant human HDAC2 [8]) [µM],IC50 (recombinant human HDAC3 [9]) [µM],IC50 (recombinant human HDAC1 [10]) [µM],Selectivity (HDAC1/6) (recombinant human HDAC1 [10]),IC50 (MDA-MB-231 cells) [µM],IC50 (Hela cells) [µM],IC50 (U937 cells) [µM],IC50 (HCT116 cells) [µM],IC50 (Eca-109 cells) [µM],IC50 (Bel 7402 cells) [µM],IC50 (A549 cells) [µM],IC50 (SK-OV-3 cells) [µM],further results
"CSCC1NC(=O)C2(C)CSC(=N2)c2csc(n2)CNC(=O)CC(C(F)=CCCS)OC1=O [Compound 15c, (1^2Z,2^2Z,2^4R,8S)-8-((Z)-1-fluoro-4-mercaptobut-1-en-1-yl)-2^4-methyl-5-((methylthio)methyl)-2^4,2^5-dihydro-7-oxa-4,11-diaza-1(4,2),2(2,4)-dithiazolacyclododecaphane-3,6,10-trione]",–,–,–,–,–,–,–,–,–,–,–,–,–,–,IC50 (recombinant human HDAC1 [1]): 0.00027 ± 2e-05 µM; IC50 (recombinant human HDAC2 [2]): 0.00133 ± 2e-05 µM; IC50 (recombinant human HDAC6 [3]): 0.0239 µM; IC50 (recombinant human HDAC3 [4]): 0.00233 ± 0.00015 µM; IC50 (recombinant human HDAC8 [5]): 0.00044 ± 0.00016 µM
CC(C)C1NC(=O)C2(C)CSC(=N2)c2csc(n2)CNC(=O)CC(C(F)=CCCS)OC1=O (centres unmarked) [Compound 15a],0.00838 ± 0.00246,0.3 ± 0.005,0.021 ± 0.0003,0.0392 ± 0.0023,0.00439 ± 0.00017,68,–,–,–,–,–,–,–,–,–
CCCCCCCC(=O)SCC/C=C/[C@@H]1CC(=O)NCc2nc(cs2)C2=N[C@@](C)(CS2)C(=O)N[C@@H](C(C)C)C(=O)O1 [largazole],–,–,–,–,–,–,4.75 ± 1.95,0.17 ± 0.01,0.02,0.11 ± 0.01,0.1,0.17 ± 0.02,0.52 ± 0.17,0.25 ± 0.17,–
CC12CSC(=N1)c1csc(n1)CNC(=O)CC(C(F)=CCCS)OC(=O)C(Cc1ccccc1)NC2=O (centres unmarked) [Compound 15b],0.0175 ± 0.0042,0.338 ± 0.017,0.0163 ± 0.0004,0.0371 ± 0.0008,0.00424 ± 0.00038,80,–,–,–,–,–,–,–,–,–
"CCCCCCCC(=O)SCC/C=C(\F)[C@@H]1CC(=O)NCc2nc(cs2)C2=N[C@@](C)(CS2)C(=O)N[C@@H](CSC)C(=O)O1 [Compound 16c, S-((Z)-4-fluoro-4-((1^2Z,2^2Z,2^4R,5R,8S)-2^4-methyl-5-((methylthio)methyl)-3,6,10-trioxo-2^4,2^5-dihydro-7-oxa-4,11-diaza-1(4,2),2(2,4)-dithiazolacyclododecaphane-8-yl)but-3-en-1-yl) octanethioate]",–,–,–,–,–,–,> 10,0.1 ± 0.01,0.08 ± 0.02,1.41 ± 0.54,0.09 ± 0.02,0.25 ± 0.07,2.92 ± 0.53,3.13 ± 0.5,IC50 [11]: 1.41 to 3.13 µM
"CCCCCCCC(=O)SCC/C=C(\F)[C@@H]1CC(=O)NCc2nc(cs2)C2=N[C@@](C)(CS2)C(=O)NCC(=O)O1 [Compound 16d, S-((Z)-4-fluoro-4-((1^2Z,2^2Z,2^4R,8S)-2^4-methyl-3,6,10-trioxo-2^4,2^5-dihydro-7-oxa-4,11-diaza-1(4,2),2(2,4)-dithiazolacyclododecaphane-8-yl)but-3-en-1-yl) octanethioate]",–,–,–,–,–,–,> 10,–,–,6.62 ± 1.86,–,–,> 10,> 10,–
